Where a name gives a salt, the structure may show the parent alone.
Tested on: C. albicans E81022 strain
Assay: Experimental systemic candidal infection model in mice
Format: in vivo
Conditions: peroral (into the stomach), female ICR mice infected i.v. with C. albicans E81022, observed until 14 days after infection
Protocol: 1. Experimental Systemic Candidal Infection Model in Mice
A standing culture of C. albicans E81022 strain was carried out for 48 hours at 30° C in sabouraud dextrose agar medium (SDA), the recovered fungal cells were suspended in sterilized physiological saline. By counting the fungal number on cytometry plate, the suspension was diluted to 2×10^7 cells/mL with sterilized physiological saline to serve fungal inoculum.
The fungal inoculum was used in the amounts of 0.2 mL to inoculate 4.5 to 5.5 week-old female ICR mice in the tail vein (4×10^6 cells/mouse).
From 0.5 and 1 hours after fungal inoculation, 0.2 mL of agent solution (compound of Reference Example 1 dissolved to 5 mg/ml in 50 mM hydrochloric acid, diluted suitably in sterile water, and then, diluted 10-fold in 5% fructose solution) was administered into the stomach using a peroral probe twice every 6 hours. […]
The protective effect was determined by observing lifeldeath until 14 days after infection and calculating the mean survival days.

Nc1ncccc1-c1cc(Cc2ccc(COc3ccccn3)cc2)no1 [Hydrochloride of Reference Example 1, 3-(3-(4-(Pyridin-2-yloxymethyl)-benzyl)-isoxazol-5-yl)-pyridin-2-yl amine]
Mean Survival Days (2.5 mg/kg): 11.0 days | Mean Survival Days (5 mg/kg): 13.4 days
